{"source": "paper PMC5216742", "about": "“Discovery and characterization of a novel potent type II native and mutant BCR-ABL inhibitor (CHMFL-074) for Chronic Myeloid Leukemia (CML)” (Oncotarget, 2016)", "key": {"[1]": {"molecular_target": "T1, ABL1(E255K)-phosphorylated (Homo sapiens, UniProt P00519, E255K)", "T1 construct": "purchased DiscoveRx (KinomeScan service)", "experiment": "KinomeScan profiling", "assay_type": "binding", "settings": "1 µM CHMFL-074; read-out: % Control"}, "[2]": {"molecular_target": "T2, ABL1(Q252H)-phosphorylated (Homo sapiens, UniProt P00519, Q252H)", "T2 construct": "purchased DiscoveRx (KinomeScan service)", "experiment": "KinomeScan profiling", "assay_type": "binding", "settings": "1 µM CHMFL-074; read-out: % Control"}, "RET(M918T)": {"molecular_target": "T3, RET(M918T) (Homo sapiens, UniProt P07949, M918T)", "T3 construct": "purchased DiscoveRx (KinomeScan service)", "T3 sequence (P07949 29-1114 M918T)": "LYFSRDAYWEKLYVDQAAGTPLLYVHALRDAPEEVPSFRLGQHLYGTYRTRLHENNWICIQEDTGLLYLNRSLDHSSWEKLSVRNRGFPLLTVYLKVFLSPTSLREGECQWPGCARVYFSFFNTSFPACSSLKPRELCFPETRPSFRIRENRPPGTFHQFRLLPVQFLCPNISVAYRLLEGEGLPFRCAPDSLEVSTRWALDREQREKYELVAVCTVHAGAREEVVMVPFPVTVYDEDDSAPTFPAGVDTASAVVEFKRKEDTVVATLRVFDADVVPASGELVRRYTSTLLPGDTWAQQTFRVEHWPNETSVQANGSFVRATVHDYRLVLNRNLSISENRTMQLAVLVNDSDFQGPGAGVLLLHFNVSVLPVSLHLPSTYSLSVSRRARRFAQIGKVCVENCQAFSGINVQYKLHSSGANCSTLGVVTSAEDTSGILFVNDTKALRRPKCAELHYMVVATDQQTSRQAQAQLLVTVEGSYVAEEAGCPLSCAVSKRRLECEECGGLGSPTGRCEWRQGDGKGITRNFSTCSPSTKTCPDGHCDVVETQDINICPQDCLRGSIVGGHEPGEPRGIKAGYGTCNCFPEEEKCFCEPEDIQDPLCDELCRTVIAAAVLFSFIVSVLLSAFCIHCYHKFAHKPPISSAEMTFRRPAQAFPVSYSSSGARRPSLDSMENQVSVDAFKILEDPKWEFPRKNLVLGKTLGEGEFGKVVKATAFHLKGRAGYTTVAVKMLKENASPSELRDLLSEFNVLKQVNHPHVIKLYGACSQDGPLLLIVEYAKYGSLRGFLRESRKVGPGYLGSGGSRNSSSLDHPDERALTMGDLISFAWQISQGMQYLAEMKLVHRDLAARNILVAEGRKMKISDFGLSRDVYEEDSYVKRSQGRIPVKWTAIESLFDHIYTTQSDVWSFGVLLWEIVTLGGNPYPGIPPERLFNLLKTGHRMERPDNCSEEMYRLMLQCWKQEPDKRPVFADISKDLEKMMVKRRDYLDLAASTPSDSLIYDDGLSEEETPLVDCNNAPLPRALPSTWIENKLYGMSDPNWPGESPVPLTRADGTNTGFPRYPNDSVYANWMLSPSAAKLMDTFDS", "experiment": "KinomeScan profiling", "assay_type": "binding", "settings": "1 µM CHMFL-074; read-out: % Control"}, "PDGFRα": {"molecular_target": "PDGFRα (Homo sapiens, UniProt P16234)", "sequence (P16234 24-1089)": "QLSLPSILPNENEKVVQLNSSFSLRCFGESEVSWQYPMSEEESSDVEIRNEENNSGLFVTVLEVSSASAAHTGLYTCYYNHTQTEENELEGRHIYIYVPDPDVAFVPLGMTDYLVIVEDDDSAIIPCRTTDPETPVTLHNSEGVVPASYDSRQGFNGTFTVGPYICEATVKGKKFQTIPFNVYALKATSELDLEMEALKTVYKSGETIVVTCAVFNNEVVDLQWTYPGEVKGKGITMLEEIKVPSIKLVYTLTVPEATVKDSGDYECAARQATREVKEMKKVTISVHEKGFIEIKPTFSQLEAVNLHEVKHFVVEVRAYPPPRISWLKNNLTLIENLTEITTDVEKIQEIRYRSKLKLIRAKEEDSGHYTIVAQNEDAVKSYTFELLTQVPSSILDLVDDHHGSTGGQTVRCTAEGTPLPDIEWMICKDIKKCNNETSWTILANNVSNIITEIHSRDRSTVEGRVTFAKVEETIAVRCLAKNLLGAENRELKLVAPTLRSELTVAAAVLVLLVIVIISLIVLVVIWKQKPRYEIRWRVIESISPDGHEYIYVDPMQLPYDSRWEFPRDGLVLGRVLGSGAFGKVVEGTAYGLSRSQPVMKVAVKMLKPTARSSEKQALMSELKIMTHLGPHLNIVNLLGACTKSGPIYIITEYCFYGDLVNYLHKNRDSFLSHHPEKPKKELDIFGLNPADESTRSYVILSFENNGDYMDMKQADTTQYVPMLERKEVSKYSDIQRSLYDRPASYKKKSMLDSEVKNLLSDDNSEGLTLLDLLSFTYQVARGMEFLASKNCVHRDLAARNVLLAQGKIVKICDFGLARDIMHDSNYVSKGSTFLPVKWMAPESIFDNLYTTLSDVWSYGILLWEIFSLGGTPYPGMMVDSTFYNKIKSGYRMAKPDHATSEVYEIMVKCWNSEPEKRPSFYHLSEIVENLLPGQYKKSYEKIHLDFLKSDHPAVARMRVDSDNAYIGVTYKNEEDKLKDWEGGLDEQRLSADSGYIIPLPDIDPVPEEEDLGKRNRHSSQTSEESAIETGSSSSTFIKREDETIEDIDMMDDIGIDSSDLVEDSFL", "experiment": "Promega ADP-Glo biochemical kinase assay", "settings": "100 μM ATP, read-out: IC50 against PDGFRα", "experimental": "(§1) The ADP-Glo™ kinase assay (Promega, USA) was used to screen CHMFL-074 for its PDGFRα/PDGFRβ inhibition effects. […] The reaction in each tube was started immediately by adding ATP and kept going for an hour under 37°C. After the tube cooled for 5 minutes at room temperature, 5 μL solvent reactions were carried out in a 384-well plate. Then 5 μL of ADP-Glo™ reagent was added into each well to stop the reaction and consume the remaining […] within 40 minutes. […] Luminescence signal was measured with an automated plate reader (Envision, USA) and the dose-response curve was fitted using Prism 5.0 (GraphPad Software Inc., San Diego, CA)."}, "PDGFRβ": {"molecular_target": "PDGFRβ (Homo sapiens, UniProt P09619)", "sequence (P09619 33-1106)": "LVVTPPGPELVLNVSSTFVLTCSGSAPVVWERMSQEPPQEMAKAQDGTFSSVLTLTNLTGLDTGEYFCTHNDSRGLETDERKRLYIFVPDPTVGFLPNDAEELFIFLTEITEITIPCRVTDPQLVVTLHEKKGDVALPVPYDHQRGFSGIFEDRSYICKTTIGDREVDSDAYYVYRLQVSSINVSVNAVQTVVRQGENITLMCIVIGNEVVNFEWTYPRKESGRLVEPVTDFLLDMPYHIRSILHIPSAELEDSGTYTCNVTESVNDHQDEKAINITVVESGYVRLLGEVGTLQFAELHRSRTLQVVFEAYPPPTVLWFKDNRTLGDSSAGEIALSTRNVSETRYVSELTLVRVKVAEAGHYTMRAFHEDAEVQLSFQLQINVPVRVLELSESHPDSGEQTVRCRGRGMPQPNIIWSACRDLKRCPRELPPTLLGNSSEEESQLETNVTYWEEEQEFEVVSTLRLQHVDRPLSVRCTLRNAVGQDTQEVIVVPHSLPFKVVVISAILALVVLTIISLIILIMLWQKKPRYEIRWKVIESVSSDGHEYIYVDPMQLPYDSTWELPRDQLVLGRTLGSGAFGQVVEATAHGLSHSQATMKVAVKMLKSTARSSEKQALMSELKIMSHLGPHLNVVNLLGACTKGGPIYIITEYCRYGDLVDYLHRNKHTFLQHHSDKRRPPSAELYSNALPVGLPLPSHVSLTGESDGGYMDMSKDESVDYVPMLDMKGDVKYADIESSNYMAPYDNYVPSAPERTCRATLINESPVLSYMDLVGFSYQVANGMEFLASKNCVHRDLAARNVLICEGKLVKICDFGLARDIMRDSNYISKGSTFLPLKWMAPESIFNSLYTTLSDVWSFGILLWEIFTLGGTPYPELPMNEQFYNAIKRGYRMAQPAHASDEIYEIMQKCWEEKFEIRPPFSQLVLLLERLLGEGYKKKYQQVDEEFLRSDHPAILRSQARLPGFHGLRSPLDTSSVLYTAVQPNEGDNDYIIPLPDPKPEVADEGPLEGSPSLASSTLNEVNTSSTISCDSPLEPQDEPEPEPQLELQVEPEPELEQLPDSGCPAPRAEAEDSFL", "experiment": "Promega ADP-Glo biochemical kinase assay", "settings": "100 μM ATP, read-out: IC50 against PDGFRβ", "experimental": "as §1"}, "ABL1 kinase": {"molecular_target": "T4, ABL1 kinase (Homo sapiens, UniProt P00519)", "T4 construct": "A construct encoding c-ABL residues 229–500 with a His tag; made in house; host or cells: SF9 insect cells (baculovirus, pFASTHTA)", "experiment": "Microscale thermophoresis (MST) binding Kd assay", "settings": "binding Kd against ABL1 kinase", "experimental": "A construct encoding c-ABL residues 229–500 with a His tag was cloned into baculovirus expression vector pFASTHTA. The protein was expressed by infecting SF9 cells with high titer viral stocks for 48 hours. Cells were harvested and lysed in 30 mM Tris pH 7.4, 150 mM NaCl, 3 mM KCl, 10% glycerol, 1 mM PMSF, 2 mM TCEP, 1 mM ADP, 20 mM Imidazole. The supernatant was loaded to Ni-NTA Column (QIAGEN, 1018244). Then the proteins were gradient washed using the same buffer with 50 mM, 100 mM imidazole, then the ABL protein was eluted with Elution buffer (20 mM Tris, 500 mM NaCl, 1% glycerol, 1 mM TCEP, 0.5 mM ADP, 300 mM Imidazole, pH 8.0). The eluted protein was loaded on desalt column PD-10(GE) to change the buffer to 20 mM Tris, 500 mM NaCl, 1% glycerol, 2 mM TCEP, pH 8.0. The protein was concentrated to 1 mg/ml and aliquots were frozen and stored at −80 °C.\nThe Kd was measured using the Monolith NT.115 from Nanotemper Technologies. Proteins were fluorescently labeled according to the manufacturer's protocol. […] The sample was loaded into the NanoTemper glass capillaries and microthermophoresis carried out using 20% LED power and 30% MST Power. KD were calculated using the mass action equation via the NanoTemper software from duplicate reads of triplicate experiments."}, "CHO": {"test_system": "CHO", "experiment": "Anti-proliferation, intact cancer cell lines", "assay_type": "cell-based, Chinese hamster", "settings": "Cricetulus griseus, 72 h", "experimental": "The K562 (CML), KU812 (CML), MEG-01 (CML), MV4-11 (AML), MOLM14 (AML), U937 (AML), REC-1 (Human B-cell lymphoma cell), HL-60 (Human promyelocytic leukemia cells), MEC-1(CLL), CHL (Hamster lung cell), CHO (Hamster ovary cell) cell lines were obtained from American Type Culture Collection (Manassas, VA). All the cells were grown in a humidified incubator (Thermo, USA) at 37°C under 5% CO2. CHO cells were maintained in DMEM supplemented with 10% FBS, 1% penicillin/strepto-mycin. MV4-11 (AML) were grown in IMDM supplemented with 10% FBS, 1% penicillin/streptomycin. […] For suspension cells, cells were collected by spinning down at 800 rpm/min for 5 min before use.\nA density of 1 × 10^4 to 2.5 × 10^4 cells/mL cells were mixed with various concentrations of compounds then 100 μL suspension was added to each well and incubated for 72 hours. Cell viability was determined using the CellTiter-Glo assay (Promega, USA) or CCK-8 assay (Beboy, China). Both assays were performed according to the manufacturer instructions. For CellTiter-Glo assay, luminescence was determined in a multi-label reader (Envision, PerkinElmer, USA). […] Data were normalized to control group (DMSO). GI50 were calculated using Prism 6.0 (GraphPad Software, San Diego, CA)."}, "[3]": {"test_system": "BCR-ABL positive CML patient primary cells", "experiment": "Patient primary cell proliferation assay", "assay_type": "cell-based", "settings": "Homo sapiens, read-out: half effective inhibitory concentrations", "experimental": "Mononuclear cells were isolated from CML patients or healthy donors by density-gradient centrifugation through Ficoll (Beijing Solarbio Science & Technology Co., Ltd., Beijing, China) at 400 g for 30 min, followed by two washes in 1× phosphate-buffered saline. Cells were then cultured in liquid culture (RPMI1640, supplemented with 20% FBS). All blood samples from CML patients and healthy donors were obtained through written consent under approval of the Chinese Academy of Sciences Institutional Review Board. The ethics committees approved the consent Procedure. CML primary patient cells were tested in liquid culture (RPMI1640, supplemented with 20% FBS) in the presence of different concentrations of CHMFL-074. The trypan blue exclusion assay was used for quantification of cells for seeding for before Cell-Titer Glo assays (Promega, USA). The Cell-Titer Glo assay was used for proliferation studies and carried out according to manufacturer's instructions. Cell viability is reported as percentages of control (untreated) cells."}, "K562 tumor xenografts": {"test_system": "K562 tumor xenografts", "experiment": "K562 xenograft tumor model", "assay_type": "in vivo", "excerpt": "Five-week old female nu/nu mice were purchased from the Shanghai Experimental Center, Chinese Science Academy (Shanghai, China). All animals were housed in a specific pathogen-free facility and used according to the animal care regulations of Hefei Institutes of Physical Science Chinese Academy of Sciences. Prior to implantation, cells were harvested during exponential growth. Five million K562 cells in PBS were formulated as a 1:1 mixture with Matrigel (BD Biosciences) and injected into the subcutaneous space on the right flank of nu/nu mice. Daily oral administration was initiated when K562 tumors had reached a size of 200 to 300 mm^3. Animals were then randomized into treatment groups of 6 mice each for efficacy studies. CHMFL-074 was delivered daily in a HKI solution (0.5% Methocellulose/0.4% Tween 80 in dd H2O) by orally gavage. Body weight was measured daily and tumor growth was measured every day after CHMFL-074 treatment. Tumor volumes were calculated as follows: tumor volume (mm^3) = [(W^2 × L)/2] in which width (W) is defined as the smaller of the two measurements and length (L) is defined as the larger of the two measurements."}}, "note": "Where “and” joins values, the source holds several entries; their conditions need not be identical. Equal entries are not always repeated. Entries after “also recorded” stand apart in the source; their conditions may differ.", "data": [{"smiles": "Cc1ccc(NC(=O)c2ccc(CN3CCN(C)CC3)c(C(F)(F)F)c2)cc1OC1CCN(C(=O)c2cccnc2)CC1", "note": "[CHMFL-074]", "values": [{"measurement": "remaining binding at 1 µM", "setting": "[1]", "result": 0.3, "unit": "%"}, {"measurement": "remaining binding at 1 µM", "setting": "[2]", "result": 0.4, "unit": "%"}, {"measurement": "remaining binding at 1 µM", "setting": "RET(M918T)", "result": 0.15, "unit": "%"}, {"measurement": "IC50", "setting": "PDGFRα", "result": 0.071, "unit": "µM"}, {"measurement": "IC50", "setting": "PDGFRβ", "result": 0.088, "unit": "µM"}, {"measurement": "Kd", "setting": "ABL1 kinase", "result": "0.024 µM and 0.0242 µM"}, {"measurement": "GI50", "setting": "CHO", "result": "> 10", "unit": "µM"}, {"measurement": "IC50", "setting": "[3]", "result": "0.3 to 1", "unit": "µM"}, {"measurement": "TGI (tumor growth inhibition)", "setting": "K562 tumor xenografts; 100 mg/kg/d oral, 12-day treatment", "result": 65, "unit": "%"}, {"measurement": "toxicity in xenograft mice", "setting": "K562 tumor xenografts; 100 mg/kg/day oral", "result": "without exhibiting apparent toxicity; also recorded: no apparent toxicity was observed"}]}]}
